Where two headings read alike, the source gives them in different places. No end group written: not given here.
Molecular target: T1, GPR103 Q125^3.32A (Homo sapiens, UniProt Q96P65, Q125A)
T1 construct: we used human full-length QRFPR-encoding plasmids; expressed in transfected cells; host or cells: HEK293 cells, pCAGGS vector
T1 sequence (Q96P65 1-431 Q125A): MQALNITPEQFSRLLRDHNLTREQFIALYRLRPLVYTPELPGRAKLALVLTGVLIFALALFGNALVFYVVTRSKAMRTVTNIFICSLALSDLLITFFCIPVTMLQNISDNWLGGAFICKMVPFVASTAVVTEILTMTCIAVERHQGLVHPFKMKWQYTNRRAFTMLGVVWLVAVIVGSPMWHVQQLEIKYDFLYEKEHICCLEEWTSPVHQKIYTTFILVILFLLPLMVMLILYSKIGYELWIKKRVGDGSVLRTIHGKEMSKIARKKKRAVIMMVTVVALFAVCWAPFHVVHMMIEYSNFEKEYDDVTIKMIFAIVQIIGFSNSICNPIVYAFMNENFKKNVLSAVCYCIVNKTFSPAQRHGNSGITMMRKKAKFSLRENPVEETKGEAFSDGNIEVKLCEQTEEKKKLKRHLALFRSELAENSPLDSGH
Test: TGFα shedding assay; Exp. level WT (1:50)
Assay type: cell-based
Protocol: For the TGFα shedding assay and the flow cytometry analysis, we used human full-length QRFPR-encoding plasmids. Specifically, GPR103 was N-terminally modified with an HA signal sequence followed by a FLAG epitope and then a flexible linker ([…]; the FLAG epitope is underlined) and inserted into the pCAGGS vector. Plasmid encoding GPR103 mutants were generated using Quickchange Site-Directed Mutagensis kit (Agilent).
The TGFα shedding assay was performed as described previously with minor modifications. Plasmid transfection was performed in a 6-well plate with a mixture of 500 ng (per well in a 6-well plate) AP-TGFα-encoding plasmid and 200 ng GPR103-encoding plasmid. After 1-day culture, the transfected cells were harvested by trypsinization, pelleted by centrifugation at 190 × g for 5 min, and washed once with 5 mM HEPES (pH 7.4)-containing Hank’s Balanced Salt Solution (HBSS). After centrifugation, the cells were resuspended in 8 mL of the HEPES-containing HBSS. The cell suspension was seeded in a 96-well culture plate (cell plate) at a volume of 90 μL (per well hereafter) and incubated in a 37 °C incubator with 5% CO2 for 30 min. […] After spinning the cell plates at 190 × g for 2 min, 80 μL of conditioned media was transferred to an empty 96-well plate (conditioned media (CM) plate). Then, 80 μL of AP reaction solution (10 mM p-nitrophenylphosphate (p-NPP), 120 mM Tris-HCl (pH 9.5), 40 mM NaCl, and 10 mM MgCl2) was dispensed into the cell plates and the CM plates. Absorbance at 405 nm of the plates was measured using a microplate reader (SpectraMax 340 PC384, Molecular Devices) before and after 1-h incubation at room temperature. Ligand-induced AP-TGFα release was calculated by subtracting spontaneous AP-TGFα release signal from ligand-induced AP-TGFα release signal. The AP-TGFα release signals were fitted to a four-parameter sigmoidal concentration–response curve, using the Prism 10 software (GraphPad Prism). For each replicate experiment, the pEC50 parameter (negative logarithmic values of EC50 values) of the individual GPR103 mutants were normalized to that of the wild-type GPR103 performed in parallel, and resulting ∆pEC50 values were used to denote ligand response activity of the mutants. […]
Exp. le vel: WT (1:5 0)Exp. le vel: WT (1:5 0)Exp. le vel: WT (1:5 0)Exp. le vel: WT (1:2 0)Exp. le vel: WT (1:2 0)Exp. le vel: WT (1:1 0) […]
L1 4N - t e r mA F2 5N - t e r mA I 2 6N - t e r mA Y 2 9N - t e r mA C 9 82 .5 7A T10 22 .6 1A Exp . l eve l: WT (1 :5)Exp . l evel : >WT (1 :1)Exp. le vel: WT (1:2 0)Exp. le vel: WT (1:2 0)Exp. le vel: WT (1:5 0)Exp . l eve l: WT (1 :1) […]
Exp. le vel: WT (1:1 0)Exp. le vel: WT (1:2 0) C 1 1 83 .2 5AExp. le vel: WT (1:5 0)Exp. le vel: WT (1:5 0)Exp. le vel: WT (1:2 0)Exp . l eve l: WT (1 :5) […]
Exp. le vel: WT (1:5 0)Exp. le vel: WT (1:1 0)Exp. le vel: WT (1:5 0) E203ECL2AExp . l evel : >WT (1 :1)Exp. le vel: WT (1:5 0)Exp. le vel: WT (1:5 0) […]
Exp . l eve l: WT (1 :1) F28Exp. le vel: WT (1:5 0) C 2 8 56 .4 7AExp. le vel: WT (1:2 0) WExp. le vel: WT (1:2 0) F28Exp. le vel: WT (1:5 0)Exp . l evel : >WT (1 :1) […]
Exp. le vel: WT (1:5 0)Exp. le vel: WT (1:5 0) C 3 2 77 .4 8AExp . l eve l: WT (1 :5)Exp . l evel : >WT (1 :1)Exp . l evel : >WT (1 :1) […]
Suppl eme nt ary Figure 1 | Mutational analysis of GPR103. […]
mutants. Data are presented as mean values ± SEM, normally n=3-5; dots), each performed in triplicate. b-d Cell-surface expression (b) and QRFP26-in-duced activation of GPR103 (c, d) were analyzed by the flow cytometry and the TGFα shedding assay, respectively. From the concentration–response curves (a), Emax (c) and ΔpEC50 (d) values relative to the wild type were calculated. Colors in the mutant bars indicate an expression level matching to that of titrated wild type. Statistical analyses were performed using the ordinary one-way ANOVA followed by Dunnett tests with the expression-matched […]

Emax (Exp. #1): 46.53 % WT
Emax (Exp. #2): 25.38 % WT
Emax (Exp. #3): 32.41 % WT
Emax (mean, read-out: Emax): 34.8%
EC50 (n = 3): 282 nM
Emax (n = 3, read-out: Emax): 35.7 ± 5.1%
Substance: TSGPLGNLAEELNGYSRKKGGFSFRF-NH2 [QRFP26]

— PMC11187126, “Structure and dynamics of the pyroglutamylated RF-amide peptide QRFP receptor GPR103” (Nature Communications, 2024)
